The results in this text go back to patent US10111874B2, “Combination therapies for treatment of cancer” (Araxes Pharma LLC, priority 2014, dated 2018).

The target in the first test is T1, KRAS G12C 1-169, his-tagged protein, GDP-loaded (Homo sapiens, UniProt P01116, G12C).
T1 construct: KRAS G12C 1-169, his-tagged protein, GDP-loaded
T1 sequence (P01116 1-169 isoform P01116-2 G12C): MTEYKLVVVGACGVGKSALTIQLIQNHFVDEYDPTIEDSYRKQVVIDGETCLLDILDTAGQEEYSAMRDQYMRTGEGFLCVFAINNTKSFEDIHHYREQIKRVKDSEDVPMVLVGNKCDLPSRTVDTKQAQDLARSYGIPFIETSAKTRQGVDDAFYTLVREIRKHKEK
Kind of test: Biochemical assay: covalent binding to KRAS G12C analyzed by mass spectrometry. Note: test concentration or dose not given here. To be noted: compounds 1-47, measured at 24 h.
On to `C=CC(=O)N1CCN(c2ncc3cccc(-c4ccccc4Cl)c3n2)CC1` [Compound I-35, 1-(4-(8-(2-chlorophenyl)quinazolin-2-yl)piperazin-1-yl)prop-2-en-1-one], for which the Binding % result was “+ (+indicates binding activity from 5% to 25%)”.

Consider `C=CC(=O)N1CCC(c2ncnc3cc(Cl)c(-c4ccccc4Cl)cc23)CC1` [Compound I-36, 1-(4-(7-chloro-6-(2-chlorophenyl)quinazolin-4-yl)piperidin-1-yl)prop-2-en-1-one], for which the Binding % entry is recorded as “+ (+indicates binding activity from 5% to 25%)”.

Take `C=CC(=O)N1CCN(c2nccc3cc(Cl)c(-c4ccc(Cl)cc4)cc23)CC1` [Compound I-37, 1-(4-(6-chloro-7-(4-chlorophenyl)isoquinolin-1-yl)piperazin-1-yl)prop-2-en-1-one]: the Binding % entry is “++ (++indicates binding activity greater than 25% and up to 50%)”.

With `C=CC(=O)N1CCN(c2ncnc3cc(C4CC4)c(-c4ccc(C5CC5)cc4)cc23)CC1` [Compound I-41, 1-(4-(7-cyclopropyl-6-(4-cyclopropylphenyl)quinazolin-4-yl)piperazin-1-yl)prop-2-en-1-one], the Binding % result was “+ (+indicates binding activity from 5% to 25%)”.

Regarding `C=CC(=O)N1CCN(c2c(C#N)cnc3cc(Cl)c(-c4ccc(Cl)cc4)cc23)CC1` [Compound I-42, 4-(4-acryloylpiperazin-1-yl)-7-chloro-6-(4-chlorophenyl)quinoline-3-carbonitrile], the Binding % entry is “+++ (+++indicates binding activity greater than 50% and up to 75%)”.

For the compound `C=CC(=O)N1CCN(c2nc(OC)nc3cc(Cl)c(-c4ccc(Cl)cc4)cc23)CC1` [Compound I-43, 1-(4-(7-chloro-6-(4-chlorophenyl)-2-methoxyquinazolin-4-yl)piperazin-1-yl)prop-2-en-1-one], the Binding % entry was “+++ (+++indicates binding activity greater than 50% and up to 75%)”.

As to `C=CC(=O)N1CCN(c2ncnc3cc(Cl)c(-c4ccc(Cl)cc4)cc23)CC1C(N)=O` (stereo not drawn) [Compound I-44, 1-acryloyl-4-(7-chloro-6-(4-chlorophenyl)quinazolin-4-yl)piperazin-2-carboxamide], the Binding % result is “+++ (+++indicates binding activity greater than 50% and up to 75%)”.

Regarding `C=CS(=O)(=O)N1CCN(c2ncnc3cc(Cl)c(-c4ccc(Cl)cc4)cc23)CC1` [Compound I-45, 7-chloro-6-(4-chlorophenyl)-4-(4-(vinylsulfonyl)piperazin-1-yl)quinazoline], the Binding % entry is given as “+ (+indicates binding activity from 5% to 25%)”.

In the case of `C=CC(=O)N1CCN(c2ncnc3cc(Cl)c(-c4ccc(Cl)cc4)cc23)CC1CO` (stereo not drawn) [Compound I-46, 1-(4-(7-chloro-6-(4-chlorophenyl)quinazolin-4-yl)-2-(hydroxymethyl)piperazin-1-yl)prop-2-en-1-one], the Binding % entry is given as “++++ (++++indicates binding activity greater than 75%)”.

With `C=CC(=O)N1CCN(c2ncnc3cc(Cl)c(-c4ccc(Cl)cc4)cc23)CC1C#N` (stereo not drawn) [Compound I-47, 1-acryloyl-4-(7-chloro-6-(4-chlorophenyl)quinazolin-4-yl)piperazine-2-carbonitrile], the Binding % entry is reported as “++++ (++++indicates binding activity greater than 75%)”.

Still in this test, the particulars now being: compounds 48-246, measured at 2 h.
On to `C=CC(=O)N1CCN(c2ncnc3cc(Cl)ccc23)CC1C#N` (stereo not drawn) [Compound I-48, 1-acryloyl-4-(7-chloroquinazolin-4-yl)piperazine-2-carbonitrile], for which the Binding % entry is “++++ (++++indicates binding activity greater than 75%)”.

On to `C=CC(=O)N1CCN(c2ncnc3cc(Cl)c(Br)cc23)CC1C#N` (stereo not drawn) [Compound I-49, 1-acryloyl-4-(6-bromo-7-chloroquinazolin-4-yl)piperazine-2-carbonitrile], for which the Binding % entry is listed as “++++ (++++indicates binding activity greater than 75%)”.

Turning to `C=CC(=O)N1CCN(c2ncnc3cc(Cl)c(-c4cccs4)cc23)CC1C#N` (stereo not drawn) [Compound I-51, 1-acryoyl-4-(7-chloro-6-(thiophen-2-yl)quinazaolin-4-yl)piperazine-2-carbonitrile], the Binding % result is “++++ (++++indicates binding activity greater than 75%)”.

On to `C=CC(=O)N1CCN(c2ncnc3cc(Cl)c(-c4ccccc4)cc23)CC1C#N` (stereo not drawn) [Compound I-52, 1-acryloyl-4-(7-chloro-6-phenylquinazolin-4-yl)piperazine-2-carbonitrile], for which the Binding % result is “++++ (++++indicates binding activity greater than 75%)”.

Turning to `C=CC(=O)N1CCN(c2ncnc3cc(Cl)c(C#N)cc23)CC1C#N` (stereo not drawn) [Compound I-53, 4-(4-acryloyl-3-cyanopiperazin-1-yl)-7-chloroquinazoline-6-carbonitrile], the Binding % result is reported as “++++ (++++indicates binding activity greater than 75%)”.

For `C=CC(=O)N1CCN(c2ncnc3cc(Cl)c(-c4ccc(Cl)cc4)cc23)C[C@H]1C(N)=O` [Compound I-54, (S)-1-acryloyl-4-(7-chloro-6-(4-chlorophenyl)quinazolin-4-yl)piperazine-2-carboxamide], the Binding % result is “++ (++indicates binding activity greater than 25% and up to 50%)”.

For the compound `C=CC(=O)N1CCN(c2ncnc3cc(Cl)c(C4CC4)cc23)CC1C#N` (stereo not drawn) [Compound I-55, 1-acryloyl-4-(7-chloro-6-cyclopropylquinazolin-4-yl)piperazine-2-carbonitrile], the Binding % entry is reported as “++++ (++++indicates binding activity greater than 75%)”.

On to `C=CC(=O)N1CCN(c2nc(C)nc3cc(Cl)c(-c4ccc(Cl)cc4)cc23)CC1C#N` (stereo not drawn) [Compound I-56, 1-acryloyl-4-(7-chloro-6-(4-chlorophenyl)-2-methylquinazolin-4-yl)piperazine-2-carbonitrile], for which the Binding % entry was “++++ (++++indicates binding activity greater than 75%)”.

With `C=CC(=O)N1CCN(c2ncnc3ccccc23)CC1C#N` (stereo not drawn) [Compound I-57, 1-acryloyl-4-(quinazolin-4-yl)piperazine-2-carbontrile], the Binding % entry is given as “+ (+indicates binding activity from 5% to 25%)”.

In the case of `C=CC(=O)N1CCN(c2ncnc3cc(Cl)c(-c4ccc(Cl)cc4)cc23)C[C@@H]1C#N` [Compound I-58, (R)-1-acryloyl-4-(7-chloro-6-(4-chlorophenyl)quinazolin-4-yl)piperazine-2-carbonitrile], the Binding % entry was “+++ (+++indicates binding activity greater than 50% and up to 75%)”.

With `C=CC(=O)N1CCN(c2ncnc3cc(Cl)c(-c4ccc(Cl)cc4)cc23)C[C@H]1C#N` [Compound I-59, (S)-1-acryloyl-4-(7-chloro-6-(4-chlorophenyl)quinazolin-4-yl)piperazine-2-carbonitrile], the Binding % entry is “++++ (++++indicates binding activity greater than 75%)”.

Take `C=CC(=O)N1CCN(c2ncnc3cc(Cl)c(-c4ccc(Cl)cc4)cc23)CC1CN(C)C` (stereo not drawn) [Compound I-60, 1-(4-(7-chloro-6-(4-chlorophenyl)quinazolin-4-yl)-2-((dimethylamino)methyl)piperazin-1-yl)prop-2-en-1-one]: the Binding % entry is recorded as “+ (+indicates binding activity from 5% to 25%)”.

As for `C=CC(=O)N1CCN(c2nccc3cc(Cl)ccc23)CC1C#N` (stereo not drawn) [Compound I-61, 1-acryloyl-4-(6-chloroisoquinolin-1-yl)piperazine-2-carbonitrile], the Binding % entry is “+ (+indicates binding activity from 5% to 25%)”.

For the compound `C=CC(=O)N1CCN(c2ncnc3cc(Cl)c(-c4ccc(Cl)cc4)cc23)CC1CCO` (stereo not drawn) [Compound I-62, 1-(4-(7-chloro-6-(4-chlorophenyl)quinazolin-4-yl)-2-(2-hydroxyethyl)piperazin-1-yl)prop-2-en-1-one], the Binding % result is “+ (+indicates binding activity from 5% to 25%)”.
